Earlier results on 1 compound are cited in patent US6709666B2, “Insecticidal mat and heat-transpiration insecticidal method using the same” (Dainihon Jochugiku Co., Ltd., priority 2000, dated 2004).

The conditions of the data set: at 20° C.

Each structure is given as a SMILES string.

As to `C#CC(OC(=O)C1C(C=C(C)C)C1(C)C)/C(C)=C/CC` (stereo not shown) [empenthrin], the vapor pressure is recorded as 87 mPa.
